These results are taken from patent publication US4579866A, “Phenylacetamides as anti-allergy, anti-asthma and anti-inflammatory agents” (USV Pharmaceutical Corp., priority 1984, dated 1986).

One experiment has as its target T1, HUMAN 5 LIPOXYGENASE (Homo sapiens, UniProt P09917).
T1 construct: A suspension of human neutrophils in buffer; endogenous in cells; host or cells: human neutrophils (PMNs) from venous blood of healthy volunteers
T1 sequence (P09917 1-674): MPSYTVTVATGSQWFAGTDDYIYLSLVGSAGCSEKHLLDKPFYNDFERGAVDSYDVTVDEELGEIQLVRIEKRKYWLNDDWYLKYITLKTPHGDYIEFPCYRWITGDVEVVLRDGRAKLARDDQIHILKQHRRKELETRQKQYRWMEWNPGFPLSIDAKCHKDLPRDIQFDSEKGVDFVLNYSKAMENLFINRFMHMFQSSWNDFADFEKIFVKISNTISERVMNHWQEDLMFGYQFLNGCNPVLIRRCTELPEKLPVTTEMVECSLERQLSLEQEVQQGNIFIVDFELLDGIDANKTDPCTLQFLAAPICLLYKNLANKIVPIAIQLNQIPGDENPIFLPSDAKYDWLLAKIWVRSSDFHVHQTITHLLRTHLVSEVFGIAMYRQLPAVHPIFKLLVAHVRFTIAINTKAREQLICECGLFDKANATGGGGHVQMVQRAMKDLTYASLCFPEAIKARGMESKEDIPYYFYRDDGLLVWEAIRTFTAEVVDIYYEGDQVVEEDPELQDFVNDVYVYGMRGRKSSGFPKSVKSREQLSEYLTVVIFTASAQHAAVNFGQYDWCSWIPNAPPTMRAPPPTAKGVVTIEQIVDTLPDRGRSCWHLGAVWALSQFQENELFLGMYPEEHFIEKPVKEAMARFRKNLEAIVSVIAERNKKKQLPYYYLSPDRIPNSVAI
Put plainly: Biosynthesis of 5-HETE by human polymorphonuclear leukocytes in vitro (inhibition of human 5-lipoxygenase). The class given is cell-based. The note with it: human neutrophils, A23187, 3 minutes at 30° C.; concentration at which 50% inhibition is observed; read-out: INHIBITION OF HUMAN 5 LIPOXYGENASE, I50. The method, then:
Protocol for the Biosynthesis of 5-HETE (5(S)-Hydroxyeicosatetraenoic Acid) by Human Polymorphonuclear Leukocytes In Vitro
(A) Isolation of Human Neutrophils
Freshly drawn venous blood from healthy human volunteers is mixed with 2 mM ethylenediamine tetraacetic acid, and is sedimented at 1×g over 6% dextran-saline. The leukocyte layer is aspirated, and the cells are concentrated by centrifugation and are layered over stacked Percoll® solutions, having densities of 1.072, 1.082 and 1.100, respectively. PMNs are isolated at the interface between the two densest layers after centrifugation at 400×g. Contaminating red blood cells are lysed by a short treatment of 0.16M ammonium chloride.
A suspension of human neutrophils in buffer is incubated for 3 minutes at 30° C. with (^14 C)-arachidonic acid (AA) and calcium ionophore A23187. Citric Acid (2M)/NDGA*(10 mM) is used to quench the reaction. Following the addition of a trace amount of (^3 H)-5-HETE together with an excess of unlabeled 5-HETE to each tube, the mixture is extracted with chloroform/methanol. The organic layer is washed with dilute hydrochloric acid and the total volume is transferred to glass tubes and dried in vacuo. The residue is dissolved in a small volume of chloroform and is spotted on silica gel TLC sheets, which are developed with an ethyl acetate/iso-octane/water/acetic acid solvent system (11/5/10/1 v/v). The 5-HETE spots are visualized under UV light, cut out and placed in scintillation vials for quantitation of radioactivity. After adjusting for the extraction efficiency, the amount (pmole) of (^14 C)-5-HETE in each of the tubes is calculated. The net pmoles of 5-HETE are obtained by subtracting the pmole of 5-HETE in the tubes containing buffer alone (blank) from the pmoles of 5-HETE in the tubes containing […]. The ability of the test compound to modulate the activity of this enzyme is determined by a decrease or increase in the net amount of 5-HETE produced. This assay is a modification of that described by Bach and Brashler for rat peritoneal cells: Bach, M., Brashler, J.: Ionophore A23187-Induced Production of SRS-A by Rat Peritoneal Cells In Vitro: Evidence for Production by Mononuclear Cells. J. Immunol. 120 998-1005 (1978).
*NDGA-nordihydroguaiaretic acid
(§1) If the percentage of inhibition exceeds 50%, the compounds are then evaluated in terms of response over a range of concentrations. From a plot of response against concentration, the I50 value is obtained. The I50 value is the concentration at which 50% inhibition is observed.

The test system of another experiment is LTC4. Put plainly: Antagonism of leukotriene C4 binding (guinea pig peripheral lung strips, contraction). It is filed as cell-based. The note with it: Cavia porcellus, leukotriene C4 usually 0.2 nM, 37° C., read-out: ANTAGONISM OF LTC4 BINDING, I50. The method, then: Protocol for Antagonism of Leukotrines C-4 Binding
Peripheral strips of guinea pig lungs are prepared and hung in tissue baths according to the procedure described by Drazen et al. (Proc. Nat'l. Acad. Sci., U.S.A. 77, 4354-4358, 1980). Male guinea pigs (Charles River, 250-400 g) are sacrificed by cervical dislocation and their lungs rapidly removed. The individual lobes are dissected free and rinsed in Assay Buffer (118 mM NaCl, 5.4 mM KCl, 2.5 mM CaCl2, 25 mM […], 1 mM MgSO4, 1 mM NaH2 PO4, 11 mM glucose) which is continuously aerated with 95% oxygen/5% carbon dioxide. After the lobes are extensively rinsed, a strip of lung tissue, approximately 2 mm thick and 5-8 cm long, is cut off the sharpest and most peripheral portion of each lobe. The peripheral edge is cut almost completely around the outside of the lobe so that a U-shaped strip is obtained. These strips are rinsed in Assay Buffer and then connected with surgical silk thread to the support rods of the water jacketed tissue baths (10 ml chambers). The other ends of the strips are connected to Gould UC3 pressure transducers which had been previously calibrated. The tissue baths are aerated with 95% oxygen/5% carbon dioxide and maintained at 37° C. The tension on these strips are adjusted to 500 mg. The tissues are initially washed with fresh buffer every 5-10 minutes for about 30 minutes and thereafter washed with fresh assay buffer at least every 20 minutes.
After the tissue had been repeatedly washed and allowed to equilibrate in the tissue baths, they are challenged with 1 μM histamine to standardize the contractions for each tissue.
Responses of each tissue to a predetermined concentration (usually 0.2 nM) of leukotriene C4 are then obtained. Compounds are then tested for their ability to antagonize to leukotriene C4 immediately upon challenge.
as §1

With `C=CCOc1ccc(CC(=O)N(C)CCc2ccccc2)cc1Cl` [N--[4-Alloyoxy-3-chlorophenylacetyl]-N--methyl-2-phenylethylamine], the IC50 was found to be 2 µM at HUMAN 5 LIPOXYGENASE and 3 µM with LTC4.
With `CCCOc1ccc(CC(=O)N[C@H](Cc2ccccc2)C(=O)OC)cc1Cl` [3-Chloro-4-n-propyloxyphenylacetyl-D-phenylalanine methyl ester], the IC50 on HUMAN 5 LIPOXYGENASE stood at 6 µM; in the experiment with LTC4, 9 µM.
Turning to `CN(CC(O)c1ccccc1)C(=O)Cc1ccc(OCCc2ccccc2)c(Cl)c1` (centres unmarked) [N--[3-Chloro-4-phenylethyloxyphenylacetyl]-N--methyl-2-hydroxy-2-phenyl-ethyl-amine], the results for the IC50 at HUMAN 5 LIPOXYGENASE and in the experiment with LTC4 were 10 µM and 5 µM, respectively.
Regarding `C#CCOc1ccc(CC(=O)N[C@H](Cc2ccccc2)C(=O)OC)cc1Cl` [3-Chloro-4-propargyloxyphenylacetyl-D-phenylalanine methyl ester], the IC50 was determined as 1.5 µM at HUMAN 5 LIPOXYGENASE and 12 µM in the experiment with LTC4.
